Assays:
Format in all cases: cell-based, human
[1] = test system: TCC ESL3.334; assay: T-cell proliferation, TCC ESL3.334; settings: VP16 1-492 at 1 μg/ml, β-gal-VP16 180-492 at 1:1,000, peptides at 1 μM
Protocol: (§1) Triplicate proliferation assay wells contained 10^4 cloned T-cells, 10^5 irradiated (3300 rad) PBMC or 2.5×10^4 irradiated (8000 rad) EBV-LCL as antigen presenting cells (APC), and antigen in 200 μl T-cell media (D. M. Koelle et al., 1997, Human. Immunol., 53:195-205) in 96-well U-bottom plates. When heat-killed bacteria were used as antigen, the equivalent of 10^5 cfu/well (prior to inactivation) was added and gentamicin (20 μg/ml) was included. After 72 hours, 1 μCi/well ^[3]H thymidine was added for 18 hours, cells were harvested, and incorporation of thymidine evaluated by liquid scintillation counting. Standard deviations were less than 10% of the mean values. Results are reported as mean cpm or as delta cpm=mean cpm for experimental antigen minus mean cpm for control antigen. Control antigen was mock-infected cell lysate for whole viral antigens and pUEX2-derived β-galactosidase for recombinant protein preparations. To determine the reactivity of bulk-cultured lesion-derived T-cells, fusion proteins or control β-galactosidase were used at 10 μg/ml. To determine HLA restricting loci, HLA DR-specific mAb L243 (V. G. Preston et al., 1978, J. Virol., 28:499-517), HLA DP-specific mAb B7.21 (A. J. Watson et al., 1983, Nature, 304:358-360), or HLA DQ-specific mAb SpV-L3 (H. Spits et al., 1984, Eur. J. Immunol., 14:299-304) were used as described (D. M. Koelle et al., 1994, J. Virol. 68:2803-2810).

[2] = test system: TCC ESL3.334; assay: Cytolysis assay (4-hour 51Cr release), CD4 TCC ESL3.334; settings: HSV-2 infected or 1 μM peptide, E:T 20:1
Protocol: (§2) Cytolysis assays were performed in triplicate using 4-hour [^51]Cr release as described (D. M. Koelle et al., 1993, J. Clin. Invest., 91:961-968). […] W. Kwok et al., 1996,J. Exp. Med., 183:1253-1258). The effector to target ratio was 20:1. Spontaneous release was less than 28%.

[3] = test system: TCC KM.7; assay: T-cell proliferation, TCC KM.7; settings: VP16 1-492 at 1 μg/ml, β-gal-VP16 180-492 at 1:1,000, peptides at 1 μM
Protocol: as §1, with “To determine the reactivity of bulk-cultured lesion-derived T-cells, fusion proteins or control β-galactosidase were used at 10 μg/ml. To determine HLA restricting loci, HLA DR-specific mAb L243 (V. G. Preston et al., 1978, J. Virol., 28:499-517), HLA DP-specific mAb B7.21 (A. J. Watson et al., 1983, Nature, 304:358-360), or HLA DQ-specific mAb SpV-L3 (H. Spits et al., 1984, Eur. J. Immunol., 14:299-304) were used as described (D. M. Koelle et al., 1994, J. Virol. 68:2803-2810).” left out
(§3) Three epitopes within VP16, all HSV-2 type-specific were previously identified (K. R. Jerome et al., 1998, J. Virol., 72:436-441), and proliferative responses to full-length VP16 in bulk cultures of genital HSV-2 lesion-infiltrating lymphocytes from four of seven (57%) patients were detected (D. M. Koelle et al., 1998, J. Clin. Invest., 101:1500-09). […]

[4] = test system: TCC KM.7; assay: Cytolysis assay (4-hour 51Cr release), CD4 TCC KM.7; settings: HSV-2 infected or 1 μM peptide, E:T 20:1
Protocol: as §2

[5] = test system: TCC 1A.B.25; assay: T-cell proliferation, TCC 1A.B.25; settings: VP16 1-492 at 1 μg/ml, β-gal-VP16 180-492 at 1:1,000, peptides at 1 μM
Protocol: as §1

[6] = test system: TCC 1A.B.25; assay: Cytolysis assay (4-hour 51Cr release), CD4 TCC 1A.B.25; settings: HSV-2 infected or 1 μM peptide, E:T 20:1
Protocol: as §2

[7] = test system: TCC RH.13; assay: T-cell proliferation, TCC RH.13; settings: for delta cpm [3H] thymidine incorporation compared to media: TCC RH.13, VP16 1-492 at 1 μg/ml, β-gal-VP16 180-492 at 1:1,000, peptides at 1 μM
Protocol: as §1
as §3, with “101:1500-09). Additional peptide epitopes were sought within VP16 by two strategies. The first strategy involved screening panels of clones recovered from lesion vesicle fluid for reactivity with recombinant VP16 of HSV-2 followed by epitope mapping with peptides.” for “101:1500-09).”

[8] = test system: TCC RH.13; assay: Cytolysis assay (4-hour 51Cr release), CD4 TCC RH.13; settings: HSV-2 infected or 1 μM peptide, E:T 20:1
Protocol: as §2

[9] = test system: TCC 4.2E1; assay: T-cell proliferation ([3H]thymidine incorporation), TCC 4.2E1; settings: FIG. 3; peptides used at 3 μM; autologous EBV-LCL APC
Protocol: as §1, with “To determine HLA restricting loci, HLA DR-specific mAb L243 (V. G. Preston et al., 1978, J. Virol., 28:499-517), HLA DP-specific mAb B7.21 (A. J. Watson et al., 1983, Nature, 304:358-360), or HLA DQ-specific mAb SpV-L3 (H. Spits et al., 1984, Eur. J. Immunol., 14:299-304) were used as described (D. M. Koelle et al., 1994, J. Virol. 68:2803-2810).” left out

[10] = test system: TCC 4.2E1; assay: Cytolysis assay (4-hour 51Cr release), CD4 TCC 4.2E1; settings: E:T 20:1
Protocol: as §2

[11] = test system: TCC ESL4.34; assay: T-cell proliferation, TCC ESL4.34; settings: VP16 1-492 at 1 μg/ml, β-gal-VP16 180-492 at 1:1,000, peptides at 1 μM
Protocol: as §1

[12] = test system: TCC ESL4.34; assay: Cytolysis assay (4-hour 51Cr release), CD4 TCC ESL4.34; settings: HSV-2 infected or 1 μM peptide, E:T 10:1
Protocol: Cytolysis assays were performed in triplicate using 4-hour [^51]Cr release as described (D. M. Koelle et al., 1993, J. Clin. Invest., 91:961-968). […] W. Kwok et al., 1996,J. Exp. Med., 183:1253-1258). […] Spontaneous release was less than 28%.

[13] = test system: lesion-derived T cells; assay: Recognition of ICP0 epitopes by lesion-derived T cells; settings: 743-751: CD8+ T cells, HLA allele B*0702
Excerpt: The recognition event involves HLA allele B*0702, which is relatively common (approximately 10%) in the human population.

[14] = test system: TCC BM.17; assay: T-cell proliferation, TCC BM.17; settings: VP16 1-492 at 1 μg/ml, β-gal-VP16 180-492 at 1:1,000, peptides at 1 μM
Protocol: as §1, with “To determine the reactivity of bulk-cultured lesion-derived T-cells, fusion proteins or control β-galactosidase were used at 10 μg/ml. To determine HLA restricting loci, HLA DR-specific mAb L243 (V. G. Preston et al., 1978, J. Virol., 28:499-517), HLA DP-specific mAb B7.21 (A. J. Watson et al., 1983, Nature, 304:358-360), or HLA DQ-specific mAb SpV-L3 (H. Spits et al., 1984, Eur. J. Immunol., 14:299-304) were used as described (D. M. Koelle et al., 1994, J. Virol. 68:2803-2810).” left out
as §3

[15] = test system: TCC SB.17; assay: T-cell proliferation, TCC SB.17; settings: VP16 1-492 at 1 μg/ml, β-gal-VP16 180-492 at 1:1,000, peptides at 1 μM
Protocol: as §1, with “To determine the reactivity of bulk-cultured lesion-derived T-cells, fusion proteins or control β-galactosidase were used at 10 μg/ml. To determine HLA restricting loci, HLA DR-specific mAb L243 (V. G. Preston et al., 1978, J. Virol., 28:499-517), HLA DP-specific mAb B7.21 (A. J. Watson et al., 1983, Nature, 304:358-360), or HLA DQ-specific mAb SpV-L3 (H. Spits et al., 1984, Eur. J. Immunol., 14:299-304) were used as described (D. M. Koelle et al., 1994, J. Virol. 68:2803-2810).” left out
as §3

[16] = test system: bulk cultures of lesion-infiltrating T-cells; assay: Reactivity of bulk cultures of lesion-infiltrating T-cells with HSV antigens; settings: four biopsies, day 5 of a buttock recurrence of HSV-2, patient 1; fusion proteins at 10 μg/ml
Protocol: as §1, with “To determine HLA restricting loci, HLA DR-specific mAb L243 (V. G. Preston et al., 1978, J. Virol., 28:499-517), HLA DP-specific mAb B7.21 (A. J. Watson et al., 1983, Nature, 304:358-360), or HLA DQ-specific mAb SpV-L3 (H. Spits et al., 1984, Eur. J. Immunol., 14:299-304) were used as described (D. M. Koelle et al., 1994, J. Virol. 68:2803-2810).” left out

[17] = allogeneic mismatched EBV-LCL targets

With “VP16 430-444: previously reported HSV-2 VP16 peptide epitope, amino acids 430-444 (EEVDMTPADALDDFD; UniProt P68336 430-444, looked up, fragment)” the “delta cpm [3H] thymidine incorporation compared to media” value (“delta cpm … compared to media” below) [1] was 27,283 cpm, the percent specific release [2, 17] was 0.3% and the percent specific release ([2]; autologous EBV-LCL targets) was 33.6%.

For “VP16 209-221: HSV-2 VP16 (UL48) peptide, amino acids 209-221”, the “delta cpm … compared to media” value [3] was 10,075 cpm, the percent specific release [4, 17] was 4.3% and the percent specific release ([4]; autologous EBV-LCL targets) was 43.6%.

With “VP16 431-440: previously reported HSV-2 VP16 peptide epitope, amino acids 431-440 (EVDMTPADAL; UniProt P68336 431-440, looked up, fragment)” the “delta cpm … compared to media” value [5] was 38,664 cpm, the percent specific release [6, 17] was 2.1% and the percent specific release ([6]; autologous EBV-LCL targets) was 42.2%.

For “VP16 185-197: HSV-2 VP16 (UL48) peptide, amino acids 185-197”, the “delta cpm … compared to media” value [7] was 55,614 cpm, the “stimulation of TCC RH.13 by VP16 peptides” value ([7]; epitope mapping with peptides) was “stimulatory” and the percent specific release [8, 17] was 0.3%. It also gave a percent specific release ([8]; autologous EBV-LCL targets) of 55.2%.

With “GGPVGAGGRSHAPPARTPKMTR (GGPVGAGGRSHAPARTPKMTR) [VP22 105-126]” the “stimulation of TCC 4.2E1 by overlapping peptides” value [9] was “stimulatory”, the percent specific release ([10]; allogeneic mismatched EBV-LCL targets, HSV-2 infected or 1 μM peptide) was −1.7% and the percent specific release ([10]; autologous EBV-LCL targets, HSV-2 infected or loaded with 1 μM peptide) was 44.2%.

For “VP16 393-405: previously reported HSV-2 VP16 peptide epitope, amino acids 393-405 (LVAPRMSFLSAGQ; UniProt P68336 393-405, looked up, fragment)”, the “delta cpm … compared to media” value [11] was 95,942 cpm, the percent specific release [12, 17] was 0.6% and the percent specific release ([12]; autologous EBV-LCL targets) was 10.4%.

“ICP0 743-751: amino acids 743-751 of ICP0 (QGTLVGALD; UniProt P08393 743-751, looked up, fragment)” was tested, and the “recognition by lesion-derived T cells” value [13] was “specific recognition”.

B1: β-gal-VP16 180-492: β-galactosidase fusion protein with HSV-2 VP16 180-492 (protein)
chain: YLRASVRQLHRQAHMRGRNRDLREMLRTTIADRYYRETARLARVLFLHLYLFLSREILWAAYAEQMMRPDLFDGLCCDLESWRQLACLFQPLMFINGSLTVRGVPVEARRLRELNHIREHLNLPLVRSAAAEEPGAPLTTPPVLQGNQARSSGYFMLLIRAKLDSYSSVATSEGESVMREHAYSRGRTRNNYGSTIEGLLDLPDDDDAPAEAGLVAPRMSFLSAGQRPRRLSTTAPITDVSLGDELRLDGEEVDMTPADALDDFDLEMLGDVESPSPGMTHDPVSYGALDVDDFEFEQMFTDAMGIDDFGG
modifications: left off: large carriers
In the case of B1, the “delta cpm … compared to media” value [14] is reported as 45,958 cpm, the “delta cpm … compared to media” value [15] is reported as 12,178 cpm and the “delta cpm … compared to media” value [1] is reported as 16,434 cpm. The “delta cpm … compared to media” value [5] was 41,123 cpm.

B2: VP22 105-190: fusion protein containing VP22 amino acids 105-190 (protein)
chain: GGPVGAGGRSHAPPARTPKMTRGAPKASATPATDPARGRRPAQADSAVLLDAPAPTASGRTKTPAQGLAKKLHFSTAPPSPTAPWT
modifications: left off: large carriers
For B2, the “reactivity of bulk lesion-infiltrating T-cell cultures” value [16] was “showed reactivity”.

B3: VP16 1-492: baculovirus-derived recombinant HSV-2 VP16 1-492 (protein)
chain: MDLLVDDLFADADGVSPPPPRPAGGPKNTPAAPPLYATGRLSQAQLMPSPPMPVPPAALFNRLLDDLGFSAGPALCTMLDTWNEDLFSGFPTNADMYRECKFLSTLPSDVIDWGDAHVPERSPIDIRAHGDVAFPTLPATRDELPSYYEAMAQFFRGELRAREESYRTVLANFCSALYRYLRASVRQLHRQAHMRGRNRDLREMLRTTIADRYYRETARLARVLFLHLYLFLSREILWAAYAEQMMRPDLFDGLCCDLESWRQLACLFQPLMFINGSLTVRGVPVEARRLRELNHIREHLNLPLVRSAAAEEPGAPLTTPPVLQGNQARSSGYFMLLIRAKLDSYSSVATSEGESVMREHAYSRGRTRNNYGSTIEGLLDLPDDDDAPAEAGLVAPRMSFLSAGQRPRRLSTTAPITDVSLGDELRLDGEEVDMTPADALDDFDLEMLGDVESPSPGMTHDPVSYGALDVDDFEFEQMFTDAMGIDDFGG
B3 was tested, and the “delta cpm … compared to media” value [7] was 32,991 cpm, the “delta cpm … compared to media” value [3] was 5,627 cpm and the “delta cpm … compared to media” value [11] was 17,302 cpm. The “delta cpm … compared to media” value [1] was 22,754 cpm and the “delta cpm … compared to media” value [5] was 24,919 cpm.

— patent US6814969B2, “Immunologically significant herpes simplex virus antigens and methods for using same” (University of Washington, priority 2001, dated 2004)
